Key:
hepatic β-oxidation = assay: β-oxidation assay of hepatic mitochondria; assay type: in vivo, mouse; conditions: ob/ob mice 14 h after FGF1 injection
Protocol: FIGS. 8A-8E: FGF1 decreases hepatic glucose production via controlling metabolic flux to gluconeogenesis. (FIG. 8A) Pyruvate tolerance test (PTT) (left panel) and glycerol tolerance test (Glycerol TT) of overnight-fasted DIO mice 2 h after vehicle (n=6) or FGF1 (n=7) injection (0.5 mg/kg). Data are represented as mean±SEM (*p<0.05, **p<0.01, ***p<0.001). (FIG. 8B) Schematic diagram showing the steps in hepatic glucose production. […] (FIG. 8C) Relative levels of the key metabolites involved in the citric acid cycle as measured by targeted metabolomic profiling. Data are represented as mean±SEM (vehicle n=5; FGF1 n=6). (FIG. 8D) Pyruvate carboxylase, PEPCK and G6Pase levels in livers of overnight fasted ob/ob mice 2 hours after injection of vehicle or FGF1, as measured by Western blot. Protein levels are normalized to actin for quantification (n=6/arm). (FIG. 8E) β-oxidation assay of hepatic mitochondria from ob/ob mice 14 h after Vehicle (PBS) or FGF1 injection. Mitochondria were incubated with BSA-conjugated ^14C palmitate, and released ^14C CO2 was measured by scintillation counting. Data are represented as mean±SEM (n=5/arm).

3T3-L1 adipocytes = assay: In vitro lipolysis assay (FFA release), 3T3-L1 adipocytes; assay type: cell-based
Protocol: Differentiation of pre-adipocytes were based on previously published methods (Bunnell et al., 2008). Briefly, 3T3-L1 pre-adipocytes were grown to full confluence in DMEM, 10% FBS (GemCell, 100-500), 10 mM HEPES and antibiotic-antimycotic (full growth media). 2 days later, differentiation was induced by replacing the media with 1 μM dexamethasone, 1 μM rosiglitazone, 500 μM IBMX and 5 μg/ml insulin in full growth media 2 days later after reaching full confluence. Two days later media was replaced by differentiation induction media with 1 μM rosiglitazone and 5 μg/ml insulin for 4 days with media change after 2 days. Cells were kept in maintenance medium (full growth media with 5 μg/ml insulin) for 4 more days for full differentiation. For differentiation of mouse SVF derived adipocytes, the protocol was same except DMEM/F12 (10565018, ThermoFisher) was used as base media and initial differentiation induction media was kept for 3 days. For differentiation of human subcutaneous adipocytes, protocol and media from the manufacturer (C-12735, C-39437, Promocell) were used. Dexamethasone was omitted from the media in the last 3 days before performing experiments. Both mouse and human SVF derived adipocytes were differentiated in collagen coated plates (A1142802, ThermoFisher).
(§1) For in vitro lipolysis assay, cells were washed with PBS and media were changed to full growth media 1 day before experiment. Cells were serum starved for 2 h and placed in KRBH buffer (30 mM HEPES, 120 mM NaCl, 4 mM KH2PO4, 1 mM MgSO4, 0.75 mM CaCl2), and 10 mM NaHCO3) with 2% fatty acid free BSA and 5 mM glucose. FGF1 was added 10 min before induction of lipolysis with 100 nM isoprotenol (ISO). Inhibitors were added 30 min prior to FGF1 treatment unless otherwise noted. Media were collected and cells were lysed in protein extraction buffer. FFAs were measured in the media using a commercial kit (Wako-NEFAHR2) and normalized to protein concentration. For ex vivo lipolysis, the assay was modified from a published protocol (Funicello et al., 2007). Briefly, approximately 0.1 gram of adipose tissue was excised, weighed and kept in cold PBS until treatment and control tissues were collected. Tissues were cut into small pieces and incubated in same KRBH buffer as described above for 4 h. FFAs were measured and normalized by the explant weights.

[1] = system: hepatic glucose production; assay: Pyruvate tolerance and glycerol tolerance tests; assay type: in vivo, mouse
Protocol: Pyruvate tolerance and glycerol tolerance tests were performed in ob ob and DIO mice after overnight fasting at 1.5 g kg^−1 dose using sodium pyruvate (0.2 g/ml) or 20% glycerol solution in PBS. Insulin tolerance test and glucose tolerance test were performed in ob ob mice after 8 h fasting. 2 U kg^−1 insulin (Humulin R) and 0.5 g kg^−1 glucose were used respectively. Blood glucose from tail bleeding was monitored by a OneTouch glucometer.

[2] = system: perilipin-HSL co-localization; assay: Perilipin-GFP and HSL-mCherry co-localization in 3T3-L1 adipocytes; assay type: cell-based
Protocol: 3T3-L1 cells were transduced with viral particles ([…]) in 24 well plates. Media was replaced after overnight incubation. 3-4 days after AAV infection, cells were treated as described for lipolysis assay. For cAMP analysis by biosensors, Downward Green cADDis cAMP Sensor (D0200G) and control mNeon Green (F0500G) produced in BacMam system was purchased from Montana Molecular. Brightfield and fluorescence images were taken every 10-20 min in I IncuCyte® Live-cell analysis system (Sartorius) and images were analyzed by IncuCyte® Analysis Software. High-resolution live cell imaging was performed with LSM 880 Airyscan microscope at 40× objective.

adipose tissue explants = assay: Ex vivo lipolysis in adipose explants of treated mice; design: species or system mouse
Protocol: as §1

[3] = overnight fasted ob/ob mice, 2 h after FGF1 0.5 mg/kg

FGF1: Recombinant fibroblast growth factor 1 protein, dissolved in PBS, injected subcutaneously
hepatic β-oxidation (hepatic β-oxidation): absence of any change
FGF1 suppression of lipolysis under FGFR1 inhibition (3T3-L1 adipocytes; FGF1 100 ng/ml with FGFR1 inhibitor PD 173074 1 μM): blocked by FGFR1 inhibition
FGF1-induced suppression of lipolysis under PDE3B inhibition (3T3-L1 adipocytes; FGF1 100 ng/ml with PDE3 inhibitors (cilostamide or quazinone 10 μM)): did not impair
anti-lipolytic activity of FGF1 with selective inhibitors of PDE4 (3T3-L1 adipocytes; FGF1 100 ng/ml with roflumilast 2 μM or cilomulast 10 μM): blocked by selective inhibitors of PDE4
isoproterenol-induced lipolysis (3T3-L1 adipocytes; dose response of FGF1, ISO 100 nM, 4 h): dose-dependently suppressed isoproterenol-induced lipolysis
pyruvate and glycerol tolerance tests ([1]; DIO mice, 2 h after FGF1 0.5 mg/kg): replicated in DIO mice
suppression of pyruvate utilization ([1]; adR1WT vs adR1KO DIO mice): dependent on adipocyte FGFR1 expression
glycerol tolerance test [1, 3]: no differences
pyruvate tolerance test (glucose synthesis from pyruvate) [1, 3]: markedly reduced ability to synthesize glucose from pyruvate
isoproterenol-induced co-localization of perilipin-GFP and HSL-mCherry ([2]; FGF1 100 ng/ml pretreatment, ISO 100 nM): reduced the isoproterenol-induced co-localization of perilipin-GFP and HSL-mCherry
FGF1 effect on perilipin-HSL co-localization under PDE4 inhibition ([2]; roflumilast 2 μM, PDE3 inhibition did not abrogate): abrogated the FGF1 effect
lipolysis in brown adipose tissue (adipose tissue explants; BAT explants, chow-fed mice, 6 h after FGF1 0.5 mg/kg): did not affect lipolysis in brown adipose tissue
FGF1 suppression of lipolysis in adipose explants under PDE4 inhibition (adipose tissue explants; DIO mice gavaged with PDE4 inhibitor 1 h prior to FGF1 injection): blocked the ability of FGF1 to suppress lipolysis
ex vivo lipolysis (adipose tissue explants; gWAT and iWAT explants, DIO adR1WT vs adR1KO, 2 h after FGF1 0.5 mg/kg): suppressed

— patent US20250082781A1, “METHODS OF LOWERING BLOOD GLUCOSE AND TREATING TYPE 2 DIABETES BY ACTIVATION OF PDE4D3” (Salk Institute for Biological Studies, priority 2021, published 2025)
